Each structure is given as a SMILES string.

The record followed here is patent US12441695B2, “Substituted thiadiazinone dioxide and preparation method therefor, herbicidal composition, and application therefor” (Qingdao Kingagroot Chemical Compound Co., Ltd., priority 2019, dated 2025).

Data set [1] has as its system major crops (wheat, corn, rice, soybean, cotton, oilseed rape, millet, sorghum). The experiment in a line: Experiment on weeding effect in post-emergence stage (crops). Conditions: 600 g/ha active ingredient plus water 450 kg/ha, 3 weeks after application; for corn plant damage level (growth control rate): crop corn; for rice plant damage level (growth control rate): crop rice; for soybean plant damage level (growth control rate): crop soybean. Type of data set: in vivo. The protocol: (§1) The above growth control rates are fresh weight control rates.
(§2) (1) Experiment on weeding effect in post-emergence stage: monocotyledonous and dicotyledonous weed seeds and major crop seeds (wheat, corn, rice, soybean, cotton, oilseed rape, millet, sorghum) were placed in plastic pots filled with soil, then covered with 0.5-2 cm of soil, allowed to grow in a good greenhouse environment. After 2-3 weeks of sowing, the test plants were treated. The tested compounds of the present invention were respectively dissolved in acetone, then added with Tween 80, diluted with a certain amount of water to obtain a solution with a certain concentration, and sprayed with a spray tower onto the plants.

The test system of data set [2] is monocotyledonous and dicotyledonous weeds. As to the kind of experiment: Experiment on weeding effect in post-emergence stage (weeds). Type of data set: in vivo. The note with it: 600 g/ha active ingredient plus water 450 kg/ha, 3 weeks after application, fresh weight control rate; for Amaranthus retroflexus activity level (growth control rate): fomesafen-resistant Amaranthus retroflexus.
Source text: The activity level criteria for plant damage (i.e., growth control rate) are as follows: • Level 5: growth control rate is above 85%; • Level 4: growth control rate is greater than or equal to 60% and less than 85%; • Level 3: growth control rate is greater than or equal to 40% and less than 60%; • Level 2: growth control rate is greater than or equal to 20% and less than 40%; • Level 1: growth control rate is greater than or equal to […]; • Level 0: growth control rate is less than 5%.
as §1
as §2, with “plants. After the application, the plants were cultured for 3 weeks in the greenhouse, and then the experimental results of the weeding were listed in Table 2.” for “plants.”

In the case of `CC(C)N1C(=O)c2cc(F)c(F)cc2NS1(=O)=O` [Compound 146], in data set [1], the “corn plant damage level (growth control rate)” value (from here on “corn plant damage level”) was 1 (Level 1: growth control rate is greater than or equal to 500 and less than 200%); the “rice plant damage level (growth control rate)” value (“rice plant damage level” for short) is given as 0 (Level 0: growth control rate is less than 5%); the “soybean plant damage level (growth control rate)” value (from here on “soybean plant damage level”) is 1 (Level 1: growth control rate is greater than or equal to 500 and less than 200%). In data set [2], the “Amaranthus retroflexus activity level (growth control rate)” value (shortened to “Amaranthus retroflexus activity level”) is 5 (Level 5: growth control rate is above 85%); the “Digitaria sanguinalis activity level (growth control rate)” value (“Digitaria sanguinalis activity level” below) was 4 (Level 4: growth control rate is greater than or equal to 60% and less than 85%); the “Echinochloa crus-galli activity level (growth control rate)” value (“Echinochloa crus-galli activity level” below) is reported as 5 (Level 5: growth control rate is above 85%); the “Setaria viridis activity level (growth control rate)” value (from here on “Setaria viridis activity level”) is on record as 5 (Level 5: growth control rate is above 85%).

Consider `CC(C)N1C(=O)c2cc(F)c(Cl)cc2NS1(=O)=O` [Compound 147], for which, in data set [1], the “corn plant damage level” value is listed as 0 (Level 0: growth control rate is less than 5%) and the “rice plant damage level” value was 0 (Level 0: growth control rate is less than 5%). Moreover, the “Amaranthus retroflexus activity level” value in data set [2] was 3 (Level 3: growth control rate is greater than or equal to 40% and less than 60%).

With `CC(=O)N1c2c(F)cc(F)cc2C(=O)N(C(C)C)S1(=O)=O` [Compound 150], in data set [1], the “corn plant damage level” value was 1 (Level 1: growth control rate is greater than or equal to 500 and less than 200%); the “rice plant damage level” value is 1 (Level 1: growth control rate is greater than or equal to 500 and less than 200%); the “soybean plant damage level” value was 1 (Level 1: growth control rate is greater than or equal to 500 and less than 200%). In addition, in data set [2], the “Amaranthus retroflexus activity level” value was 5 (Level 5: growth control rate is above 85%), the “Digitaria sanguinalis activity level” value is 5 (Level 5: growth control rate is above 85%), the “Echinochloa crus-galli activity level” value is recorded as 5 (Level 5: growth control rate is above 85%) and the “Setaria viridis activity level” value is recorded as 5 (Level 5: growth control rate is above 85%).

With `CCOC(=O)OC(C)N1c2c(F)cc(F)cc2C(=O)N(C(C)C)S1(=O)=O` (stereo not drawn) [Compound 151], in data set [1], the “corn plant damage level” value was 1 (Level 1: growth control rate is greater than or equal to 500 and less than 200%); the “rice plant damage level” value is 1 (Level 1: growth control rate is greater than or equal to 500 and less than 200%); the “soybean plant damage level” value is 1 (Level 1: growth control rate is greater than or equal to 500 and less than 200%). Further, in data set [2], the “Amaranthus retroflexus activity level” value is given as 5 (Level 5: growth control rate is above 85%), the “Digitaria sanguinalis activity level” value is 5 (Level 5: growth control rate is above 85%), the “Echinochloa crus-galli activity level” value was 5 (Level 5: growth control rate is above 85%) and the “Setaria viridis activity level” value is given as 5 (Level 5: growth control rate is above 85%).

Regarding `CC(=O)N1c2c(Cl)cc(F)cc2C(=O)N(C(C)C)S1(=O)=O` [Compound 152], in data set [1], the “corn plant damage level” value is 0 (Level 0: growth control rate is less than 5%); the “rice plant damage level” value is listed as 0 (Level 0: growth control rate is less than 5%); the “soybean plant damage level” value is 1 (Level 1: growth control rate is greater than or equal to 500 and less than 200%). Besides, in data set [2], the “Amaranthus retroflexus activity level” value is 5 (Level 5: growth control rate is above 85%), the “Digitaria sanguinalis activity level” value was 5 (Level 5: growth control rate is above 85%), the “Echinochloa crus-galli activity level” value is on record as 5 (Level 5: growth control rate is above 85%) and the “Setaria viridis activity level” value is given as 5 (Level 5: growth control rate is above 85%).

Regarding `CCOC(=O)OC(C)N1c2c(Cl)cc(F)cc2C(=O)N(C(C)C)S1(=O)=O` (stereo not drawn) [Compound 153], in data set [1], the “corn plant damage level” value was 0 (Level 0: growth control rate is less than 5%); the “rice plant damage level” value is 0 (Level 0: growth control rate is less than 5%); the “soybean plant damage level” value is 1 (Level 1: growth control rate is greater than or equal to 500 and less than 200%). Moreover, in data set [2], the “Amaranthus retroflexus activity level” value is given as 5 (Level 5: growth control rate is above 85%), the “Digitaria sanguinalis activity level” value was 5 (Level 5: growth control rate is above 85%), the “Echinochloa crus-galli activity level” value is listed as 5 (Level 5: growth control rate is above 85%) and the “Setaria viridis activity level” value was 5 (Level 5: growth control rate is above 85%).

`CC(=O)N1c2c(Br)cc(F)cc2C(=O)N(C(C)C)S1(=O)=O` [Compound 154]: in data set [1], the “corn plant damage level” value is 0 (Level 0: growth control rate is less than 5%); the “rice plant damage level” value is given as 0 (Level 0: growth control rate is less than 5%); the “soybean plant damage level” value is 1 (Level 1: growth control rate is greater than or equal to 500 and less than 200%). Further, in data set [2], the “Amaranthus retroflexus activity level” value is recorded as 5 (Level 5: growth control rate is above 85%), the “Digitaria sanguinalis activity level” value was 5 (Level 5: growth control rate is above 85%), the “Echinochloa crus-galli activity level” value is recorded as 5 (Level 5: growth control rate is above 85%) and the “Setaria viridis activity level” value is reported as 5 (Level 5: growth control rate is above 85%).

Take `CCOC(=O)OC(C)N1c2c(Br)cc(F)cc2C(=O)N(C(C)C)S1(=O)=O` (stereo not drawn) [Compound 155]: in data set [1], the “corn plant damage level” value is reported as 0 (Level 0: growth control rate is less than 5%); the “rice plant damage level” value is given as 0 (Level 0: growth control rate is less than 5%); the “soybean plant damage level” value is 1 (Level 1: growth control rate is greater than or equal to 500 and less than 200%). Also, in data set [2], the “Amaranthus retroflexus activity level” value is 5 (Level 5: growth control rate is above 85%), the “Digitaria sanguinalis activity level” value is recorded as 5 (Level 5: growth control rate is above 85%), the “Echinochloa crus-galli activity level” value was 5 (Level 5: growth control rate is above 85%) and the “Setaria viridis activity level” value was 5 (Level 5: growth control rate is above 85%).

Consider `CCN1C(=O)c2cc(F)ccc2NS1(=O)=O` [Compound 157], for which, in data set [1], the “corn plant damage level” value is on record as 0 (Level 0: growth control rate is less than 5%), the “rice plant damage level” value was 0 (Level 0: growth control rate is less than 5%) and the “soybean plant damage level” value is 0 (Level 0: growth control rate is less than 5%). In data set [2], the “Amaranthus retroflexus activity level” value was 3 (Level 3: growth control rate is greater than or equal to 40% and less than 60%).

Take `CCC(C)N1C(=O)c2cc(F)ccc2NS1(=O)=O` (stereo not drawn) [Compound 161]: in data set [1], the “corn plant damage level” value is listed as 0 (Level 0: growth control rate is less than 5%); the “rice plant damage level” value was 1 (Level 1: growth control rate is greater than or equal to 500 and less than 200%); the “soybean plant damage level” value is 0 (Level 0: growth control rate is less than 5%). Moreover, the “Setaria viridis activity level” value in data set [2] was 3 (Level 3: growth control rate is greater than or equal to 40% and less than 60%).

Regarding `CCCC(C)N1C(=O)c2cc(F)ccc2NS1(=O)=O` (stereo not drawn) [Compound 163], in data set [1], the “rice plant damage level” value is given as 0 (Level 0: growth control rate is less than 5%). Besides, the “Amaranthus retroflexus activity level” value in data set [2] is 3 (Level 3: growth control rate is greater than or equal to 40% and less than 60%).

Turning to `CCN1c2ccc(F)cc2C(=O)N(C(C)C)S1(=O)=O` [Compound 176], in data set [1], the “corn plant damage level” value was 0 (Level 0: growth control rate is less than 5%), the “rice plant damage level” value is reported as 0 (Level 0: growth control rate is less than 5%) and the “soybean plant damage level” value is listed as 0 (Level 0: growth control rate is less than 5%). The “Amaranthus retroflexus activity level” value in data set [2] was 5 (Level 5: growth control rate is above 85%).

Turning to `CCC(=O)N1c2ccc(F)cc2C(=O)N(C(C)C)S1(=O)=O` [Compound 179], in data set [1], the “corn plant damage level” value was 0 (Level 0: growth control rate is less than 5%); the “rice plant damage level” value is 1 (Level 1: growth control rate is greater than or equal to 500 and less than 200%); the “soybean plant damage level” value is 1 (Level 1: growth control rate is greater than or equal to 500 and less than 200%). Moreover, in data set [2], the “Amaranthus retroflexus activity level” value is recorded as 5 (Level 5: growth control rate is above 85%); the “Echinochloa crus-galli activity level” value is reported as 5 (Level 5: growth control rate is above 85%); the “Setaria viridis activity level” value was 3 (Level 3: growth control rate is greater than or equal to 40% and less than 60%).
